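Values below derive from 48-hour exposures of cells grown in 96-well plates, with endpoints linearly interpolated between the two concentrations bracketing the appropriate inhibition level. GI50 marks 50% less growth. TGI: concentration producing complete growth inhibition.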
What was measured:
Assay in all cases: DTP human tumour cell line panel, 48 h
HS 578T breast = tested on: HS 578T breast
A549 NSCLC = tested on: A549 NSCLC
RXF 393 renal = tested on: RXF 393 renal
OVCAR-3 ovarian = tested on: OVCAR-3 ovarian
A498 renal = tested on: A498 renal
HT29 colon = tested on: HT29 colon
CAKI-1 renal = tested on: CAKI-1 renal
SK-MEL-5 melanoma = tested on: SK-MEL-5 melanoma
NCI-H460 lung = tested on: NCI-H460 lung
SF-539 CNS = tested on: SF-539 CNS
DU-145 prostate = tested on: DU-145 prostate
SNB-75 CNS = tested on: SNB-75 CNS
BT-549 breast = tested on: BT-549 breast
SR leukemia = tested on: SR leukemia
K-562 leukemia = tested on: K-562 leukemia
UO-31 renal = tested on: UO-31 renal
TK-10 renal = tested on: TK-10 renal
RPMI-8226 leukemia = tested on: RPMI-8226 leukemia
EKVX NSCLC = tested on: EKVX NSCLC
MOLT-4 leukemia = tested on: MOLT-4 leukemia
SK-MEL-2 melanoma = tested on: SK-MEL-2 melanoma
SF-268 CNS = tested on: SF-268 CNS
SN12C renal = tested on: SN12C renal
HCT-15 colon = tested on: HCT-15 colon
MALME-3M melanoma = tested on: MALME-3M melanoma
OVCAR-5 ovarian = tested on: OVCAR-5 ovarian
NCI/ADR-RES ovarian = tested on: NCI/ADR-RES ovarian
786-0 renal = tested on: 786-0 renal
SW-620 colon = tested on: SW-620 colon
COLO 205 colon = tested on: COLO 205 colon
KM12 colon = tested on: KM12 colon
OVCAR-8 ovarian = tested on: OVCAR-8 ovarian
SF-295 CNS = tested on: SF-295 CNS
M14 melanoma = tested on: M14 melanoma
IGROV1 ovarian = tested on: IGROV1 ovarian
MDA-MB-435 = tested on: MDA-MB-435
HOP-92 NSCLC = tested on: HOP-92 NSCLC
HL-60(TB) leukemia = tested on: HL-60(TB) leukemia
SNB-19 CNS = tested on: SNB-19 CNS
ACHN renal = tested on: ACHN renal
LOX IMVI melanoma = tested on: LOX IMVI melanoma
SK-OV-3 ovarian = tested on: SK-OV-3 ovarian
MCF7 breast = tested on: MCF7 breast
NCI-H522 lung = tested on: NCI-H522 lung
UACC-257 melanoma = tested on: UACC-257 melanoma
NCI-H226 lung = tested on: NCI-H226 lung
HCT-116 colon = tested on: HCT-116 colon
UACC-62 melanoma = tested on: UACC-62 melanoma
OVCAR-4 ovarian = tested on: OVCAR-4 ovarian
MDA-MB-231 breast = tested on: MDA-MB-231 breast
NCI-H23 lung = tested on: NCI-H23 lung
SK-MEL-28 melanoma = tested on: SK-MEL-28 melanoma
T-47D breast = tested on: T-47D breast
PC-3 prostate = tested on: PC-3 prostate
CCRF-CEM leukemia = tested on: CCRF-CEM leukemia
HCC-2998 colon = tested on: HCC-2998 colon
HOP-62 NSCLC = tested on: HOP-62 NSCLC

With `COc1cc(/C=C2\CCCC3C2=Nc2ccccc2NC3c2cc(OC)c(OC)c(OC)c2)cc(OC)c1OC` (stereo not drawn) the GI50 (HS 578T breast) was 4.75 µM, the TGI (HS 578T breast) was > 100 µM and the GI50 (A549 NSCLC) was 1.9 µM. It also gave a TGI (A549 NSCLC) of 8.06 µM, a GI50 (RXF 393 renal) of 2.08 µM and a TGI (RXF 393 renal) of 5.31 µM. It also gave a GI50 (OVCAR-3 ovarian) of 2.08 µM, a TGI (OVCAR-3 ovarian) of 6.07 µM and a GI50 (A498 renal) of 1.49 µM. It also gave a TGI (A498 renal) of 6.41 µM, a GI50 (HT29 colon) of 1.21 µM and a GI50 (CAKI-1 renal) of 3.31 µM. The TGI (CAKI-1 renal) was > 100 µM, the GI50 (SK-MEL-5 melanoma) was 1.95 µM and the TGI (SK-MEL-5 melanoma) was 5.72 µM. It also gave a GI50 (NCI-H460 lung) of 0.643 µM, a TGI (NCI-H460 lung) of 2.42 µM and a GI50 (SF-539 CNS) of 3.9 µM. The TGI (SF-539 CNS) was > 100 µM, the GI50 (DU-145 prostate) was 1.87 µM and the TGI (DU-145 prostate) was 6.8 µM. For the same compound, the GI50 (SNB-75 CNS) was 21.9 µM, the TGI (SNB-75 CNS) was > 100 µM and the GI50 (BT-549 breast) was 1.58 µM. The TGI (BT-549 breast) was 5.5 µM, the GI50 (SR leukemia) was 0.723 µM and the TGI (SR leukemia) was 3.14 µM. The GI50 (K-562 leukemia) was 2.1 µM, the TGI (K-562 leukemia) was 10.3 µM and the GI50 (UO-31 renal) was 1.66 µM. For the same compound, the TGI (UO-31 renal) was 4.48 µM, the GI50 (TK-10 renal) was 3.49 µM and the TGI (TK-10 renal) was 17.7 µM. It also gave a GI50 (RPMI-8226 leukemia) of 0.389 µM, a TGI (RPMI-8226 leukemia) of 2.4 µM and a GI50 (EKVX NSCLC) of 7.45 µM. For the same compound, the TGI (EKVX NSCLC) was > 100 µM, the GI50 (MOLT-4 leukemia) was 2.31 µM and the TGI (MOLT-4 leukemia) was 5.4 µM. The GI50 (SK-MEL-2 melanoma) was 3.1 µM, the TGI (SK-MEL-2 melanoma) was 8.33 µM and the GI50 (SF-268 CNS) was 2.02 µM. The TGI (SF-268 CNS) was 71.5 µM, the GI50 (SN12C renal) was 2.1 µM and the TGI (SN12C renal) was 14 µM. For the same compound, the GI50 (HCT-15 colon) was 1.77 µM, the TGI (HCT-15 colon) was 4.08 µM and the GI50 (MALME-3M melanoma) was 1.56 µM. The TGI (MALME-3M melanoma) was 6.56 µM, the GI50 (OVCAR-5 ovarian) was 3.68 µM and the TGI (OVCAR-5 ovarian) was 11.9 µM. The GI50 (NCI/ADR-RES ovarian) was 0.957 µM, the TGI (NCI/ADR-RES ovarian) was > 100 µM and the GI50 (786-0 renal) was 2.55 µM. For the same compound, the TGI (786-0 renal) was 8 µM, the GI50 (SW-620 colon) was 1.6 µM and the TGI (SW-620 colon) was 6.77 µM. It also gave a GI50 (COLO 205 colon) of 2.59 µM, a TGI (COLO 205 colon) of 6.29 µM and a GI50 (KM12 colon) of 0.863 µM. It also gave a TGI (KM12 colon) of 2.21 µM, a GI50 (OVCAR-8 ovarian) of 0.4 µM and a TGI (OVCAR-8 ovarian) of 42.9 µM. The GI50 (SF-295 CNS) was 3.65 µM, the TGI (SF-295 CNS) was > 100 µM and the GI50 (M14 melanoma) was 1.27 µM. The TGI (M14 melanoma) was 4.23 µM, the GI50 (IGROV1 ovarian) was 4.1 µM and the TGI (IGROV1 ovarian) was 18.5 µM. For the same compound, the GI50 (MDA-MB-435) was 0.425 µM, the TGI (MDA-MB-435) was 4.4 µM and the GI50 (HOP-92 NSCLC) was 1.83 µM. It also gave a TGI (HOP-92 NSCLC) of 9.84 µM, a GI50 (HL-60(TB) leukemia) of 2.44 µM and a TGI (HL-60(TB) leukemia) of 4.97 µM. The GI50 (SNB-19 CNS) was 8.37 µM, the TGI (SNB-19 CNS) was > 100 µM and the GI50 (ACHN renal) was 1.66 µM. For the same compound, the TGI (ACHN renal) was 3.57 µM, the GI50 (LOX IMVI melanoma) was 1.81 µM and the TGI (LOX IMVI melanoma) was 5.86 µM. For the same compound, the GI50 (SK-OV-3 ovarian) was 4.87 µM, the TGI (SK-OV-3 ovarian) was > 100 µM and the GI50 (MCF7 breast) was 2.48 µM. For the same compound, the TGI (MCF7 breast) was > 100 µM, the GI50 (NCI-H522 lung) was 1.9 µM and the TGI (NCI-H522 lung) was 4.92 µM. The GI50 (UACC-257 melanoma) was 1.3 µM, the TGI (UACC-257 melanoma) was 6.77 µM and the GI50 (NCI-H226 lung) was 1.93 µM. It also gave a TGI (NCI-H226 lung) of 4.19 µM, a GI50 (HCT-116 colon) of 0.968 µM and a TGI (HCT-116 colon) of 2.17 µM. It also gave a GI50 (UACC-62 melanoma) of 1.37 µM, a TGI (UACC-62 melanoma) of 3.52 µM and a GI50 (OVCAR-4 ovarian) of 2.14 µM. The TGI (OVCAR-4 ovarian) was > 100 µM, the GI50 (MDA-MB-231 breast) was 2.9 µM and the TGI (MDA-MB-231 breast) was 25 µM. For the same compound, the GI50 (NCI-H23 lung) was 2.15 µM, the TGI (NCI-H23 lung) was 13.8 µM and the GI50 (SK-MEL-28 melanoma) was 2.02 µM. For the same compound, the TGI (SK-MEL-28 melanoma) was 5.24 µM, the GI50 (T-47D breast) was 3.75 µM and the TGI (T-47D breast) was 52.7 µM. The GI50 (PC-3 prostate) was 2.69 µM, the TGI (PC-3 prostate) was > 100 µM and the GI50 (CCRF-CEM leukemia) was 0.591 µM. It also gave a TGI (CCRF-CEM leukemia) of 3.6 µM, a GI50 (HCC-2998 colon) of 2.3 µM and a TGI (HCC-2998 colon) of 4.81 µM. It also gave a GI50 (HOP-62 NSCLC) of 1.86 µM and a TGI (HOP-62 NSCLC) of 8.4 µM.
